These results are taken from US20060014738A1, “Fungicidal combination of active substances” (priority 2002, published 2006).

This test relates to Pyrenophora teres. Put plainly: Pyrenophora teres test (barley)/curative. It is filed as in vivo. Conditions: curative, application rate of active compound 100 g/ha, evaluation 7 days after inoculation, 0% = control, 100% = no infection. As for the experimental part:
Pyrenophora teres Test (Barley)/Curative [table] To produce a suitable preparation of active compound, 1 part by weight of active compound or active compound combination is mixed with the stated amount of solvent and emulsifier, and the concentrate is diluted with water to the desired concentration. To test for curative activity, young plants are sprayed with a conidia suspension of Pyrenophora teres. The plants remain in an incubation cabin at 20° C. and 100% relative atmospheric humidity for 48 hours. The plants are then sprayed with the preparation of active compound at the stated application rate. The plants are placed in a greenhouse at a temperature of about 20° C. and a relative atmospheric humidity of about 80%. Evaluation is carried out 7 days after the inoculation. 0% means an efficacy which corresponds to that of the control, whereas an efficacy of 100% means that no infection is observed.

Structures are written as SMILES.

Regarding `CON=C(C(=O)OC)c1ccccc1CO/N=C(\C)c1cccc(C(F)(F)F)c1` [(I), 2-[α-{[(α-methyl-3-trifluoromethylbenzyl)imino]oxy}-o-tolyl]glyoxylic acid methyl ester O-methyl oxime], the Efficacy in % is on record as 56%.

For the molecule `CON=C(C1=NOCCO1)c1ccccc1Oc1ncnc(Oc2ccccc2Cl)c1F` [(III), 3-[1-[2-(4-<2-chlorophenoxy>-5-fluoropyrimid-6-yloxy)phenyl]-1-(methox-imino)methyl]-5,6-dihydro-1,4,2-dioxazine], the Efficacy in % amounted to 67%.

`OC(Cc1ccccc1Cl)(Cn1nc[nH]c1=S)C1(Cl)CC1` (stereo not drawn) [(II), 2-[2-(1-chlorocyclopropyl)-3-(2-chlorophenyl)-2-hydroxypropyl]-2,4 dihydro[1,2,4]triazole-3-thione]: the Efficacy in % turned out to be 56%.
